This data set deals with T1, Cytochrome P450 1A2 (Homo sapiens, UniProt P05177).
T1 sequence (P05177 whole entry): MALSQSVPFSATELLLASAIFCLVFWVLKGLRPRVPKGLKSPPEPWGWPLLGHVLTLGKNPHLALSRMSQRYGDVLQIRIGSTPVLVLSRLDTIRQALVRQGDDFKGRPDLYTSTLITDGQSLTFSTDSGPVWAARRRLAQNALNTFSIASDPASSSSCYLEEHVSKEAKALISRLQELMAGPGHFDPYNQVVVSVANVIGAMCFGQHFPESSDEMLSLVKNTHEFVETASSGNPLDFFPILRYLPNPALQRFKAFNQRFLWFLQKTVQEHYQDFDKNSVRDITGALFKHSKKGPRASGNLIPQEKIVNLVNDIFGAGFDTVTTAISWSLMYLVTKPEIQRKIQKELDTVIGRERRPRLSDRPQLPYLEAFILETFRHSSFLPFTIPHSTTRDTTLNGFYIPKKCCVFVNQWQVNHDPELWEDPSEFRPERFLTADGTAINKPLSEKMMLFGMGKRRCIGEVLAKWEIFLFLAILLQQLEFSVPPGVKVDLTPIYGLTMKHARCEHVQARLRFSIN
Description: CYP1A2 Inhibition Assay. The method, then:
The quenched samples were incubated at 4° C. for 10 min and centrifuged at 4° C. for 10 min.

In turn, `CC(C)(C)CN1c2cccc(O)c2C(=O)CC1c1cccc(O)c1` (stereo unspecified) [US11938127, Compound KCI838] displayed an IC50 of 2920 nM.

(Values after BindingDB's records for patent US11938127 (Wayne State University, 2024).)
